The source of these data is ChEMBL document CHEMBL5724914, “Linking interpersonal differences in gut microbiota composition and drug biotransformation activity” (2024).

Series [1] in a line: The drug is tested on Z-029 corresponding to rat gut metagenome with ENA study accession number: PRJEB37062 and ENA sample accession number: ERS12561828 for biotransformation under anaerobic condition. The drug concentrations were measured over 9 timepoints collected between 0 and 24 hours of incubation by liquid-chromatography-coupled mass spectrometry (LC–MS). Conditions: 2 µM.

The nature of series [2]: The drug is tested on WLS-310 corresponding to human gut metagenome with ENA study accession number: PRJEB37062 and ENA sample accession number: ERS12561785 for biotransformation under anaerobic condition. The drug concentrations were measured over 9 timepoints collected between 0 and 24 hours of incubation by liquid-chromatography-coupled mass spectrometry (LC–MS). The settings on record: 2 µM.

For series [3] the following is noted: human gut metagenome, 24 h, 2 µM.
A short description of series [4]: The drug is tested on Z-022 corresponding to mouse gut metagenome with ENA study accession number: PRJEB37062 and ENA sample accession number: ERS12561821 for biotransformation under anaerobic condition. The drug concentrations were measured over 9 timepoints collected between 0 and 24 hours of incubation by liquid-chromatography-coupled mass spectrometry (LC–MS). Conditions: 2 µM.

Series [5] is described as follows: The drug is tested on Z-013 corresponding to rabbit gut metagenome with ENA study accession number: PRJEB37062 and ENA sample accession number: ERS12561813 for biotransformation under anaerobic condition. The drug concentrations were measured over 9 timepoints collected between 0 and 24 hours of incubation by liquid-chromatography-coupled mass spectrometry (LC–MS). The settings on record: 2 µM.

For series [6] the following is noted: human gut metagenome, 24 h, 2 µM. This is another data set of the same source.
A short description of series [7]: The drug is tested on Z-011 corresponding to mouse gut metagenome with ENA study accession number: PRJEB37062 and ENA sample accession number: ERS12561811 for biotransformation under anaerobic condition. The drug concentrations were measured over 9 timepoints collected between 0 and 24 hours of incubation by liquid-chromatography-coupled mass spectrometry (LC–MS). The settings on record: 2 µM.

For series [8] the following is noted: human gut metagenome, 24 h, 2 µM. The source holds these as a separate data set.
For series [9] the following is noted: human gut metagenome, 24 h, 2 µM. The source holds these as a separate data set.
Series [10] in a line: The drug is tested on Z-018 corresponding to pig gut metagenome with ENA study accession number: PRJEB37062 and ENA sample accession number: ERS12561817 for biotransformation under anaerobic condition. The drug concentrations were measured over 9 timepoints collected between 0 and 24 hours of incubation by liquid-chromatography-coupled mass spectrometry (LC–MS). The settings on record: 2 µM.

Series [11] in a line: The drug is tested on WLS-077 corresponding to human gut metagenome with ENA study accession number: PRJEB37062 and ENA sample accession number: ERS12561750 for biotransformation under anaerobic condition. The drug concentrations were measured over 9 timepoints collected between 0 and 24 hours of incubation by liquid-chromatography-coupled mass spectrometry (LC–MS). Conditions: 2 µM.

The nature of series [12]: The drug is tested on Z-012 corresponding to metagenome with ENA study accession number: PRJEB37062 and ENA sample accession number: ERS12561812 for biotransformation under anaerobic condition. The drug concentrations were measured over 9 timepoints collected between 0 and 24 hours of incubation by liquid-chromatography-coupled mass spectrometry (LC–MS). The settings on record: 2 µM.

The conditions of series [13]: human gut metagenome, 24 h, 2 µM. The source holds these as a separate data set.
For series [14] the following is noted: human gut metagenome, 24 h, 2 µM. The source holds these as a separate data set.
Series [15] can be described thus: The drug is tested on Z-001 corresponding to mouse gut metagenome with ENA study accession number: PRJEB37062 and ENA sample accession number: ERS12561801 for biotransformation under anaerobic condition. The drug concentrations were measured over 9 timepoints collected between 0 and 24 hours of incubation by liquid-chromatography-coupled mass spectrometry (LC–MS). Conditions: 2 µM.

A short description of series [16]: The drug is tested on Z-025 corresponding to rabbit gut metagenome with ENA study accession number: PRJEB37062 and ENA sample accession number: ERS12561824 for biotransformation under anaerobic condition. The drug concentrations were measured over 9 timepoints collected between 0 and 24 hours of incubation by liquid-chromatography-coupled mass spectrometry (LC–MS). Conditions: 2 µM.

The conditions of series [17]: human gut metagenome, 24 h, 2 µM. The source holds these as a separate data set.
The conditions of series [18]: human gut metagenome, 24 h, 2 µM. The source holds these as a separate data set.
The conditions of series [19]: human gut metagenome, 24 h, 2 µM. The source holds these as a separate data set.
For series [20] the following is noted: human gut metagenome, 24 h, 2 µM. This is another data set of the same source.
Note: call rule not given here.

Take `CCCCCNC(=N)N/N=C/c1c[nH]c2ccc(OC)cc12.O=C(O)/C=C\C(=O)O` [TEGASEROD MALEATE]: the “Bacterial Biotransformation” value is “Compound NOT metabolized” in series [1]; “Compound NOT metabolized” in series [2]; “Compound NOT metabolized” in series [3]; “Compound NOT metabolized” in series [4]; “Compound NOT metabolized” in [5]; “Compound metabolized” in series [6]. The “Bacterial Biotransformation” value in [7] was “Compound NOT metabolized”; in series [8], “Compound metabolized”; in series [9], “Compound NOT metabolized”; in series [10], “Compound NOT metabolized”; in [11], “Compound metabolized”; in series [12] it was “Compound NOT metabolized”. For the same molecule, the “Bacterial Biotransformation” value in series [13], in series [14] and in series [15] was “Compound NOT metabolized” throughout.

As for `CC(=O)OCC(CCn1cnc2cnc(N)nc21)COC(C)=O` [FAMCICLOVIR], the “Bacterial Biotransformation” value is given as “Compound NOT metabolized” in series [1]; “Compound metabolized” in series [2]; “Compound metabolized” in series [3]; “Compound NOT metabolized” in series [4]; “Compound NOT metabolized” in series [5]; “Compound metabolized” in series [16]. Moreover, the “Bacterial Biotransformation” value in [6] is listed as “Compound metabolized”; in series [7], “Compound metabolized”; in [17], “Compound NOT metabolized”; in series [8] it was “Compound metabolized”; in series [18] it was “Compound metabolized”; in series [9] it was “Compound metabolized”. The “Bacterial Biotransformation” value in series [19] is listed as “Compound metabolized”; in series [11], “Compound metabolized”; in series [12], “Compound NOT metabolized”; in series [20], “Compound metabolized”; in series [13], “Compound metabolized”; in [14] it was “Compound metabolized”. Further, the “Bacterial Biotransformation” value in [15] was “Compound NOT metabolized”.

Regarding `CN1C[C@H](C(=O)N[C@]2(C)O[C@@]3(O)[C@@H]4CCCN4C(=O)[C@H](Cc4ccccc4)N3C2=O)C[C@@H]2c3cccc4[nH]cc(c34)C[C@H]21.CS(=O)(=O)O` [DIHYDROERGOTAMINE MESYLATE], the “Bacterial Biotransformation” value in series [1] is reported as “Compound NOT metabolized”; in series [4], “Compound metabolized”; in series [5], “Compound NOT metabolized”; in [16], “Compound metabolized”; in [7], “Compound NOT metabolized”; in series [10], “Compound NOT metabolized”. Moreover, the “Bacterial Biotransformation” value in series [12] and in series [15] was “Compound NOT metabolized” each time.

Take `C#C[C@]1(OC(C)=O)CC[C@H]2[C@@H]3CCC4=CC(=O)CC[C@@H]4[C@H]3CC[C@@]21C` [NORETHINDRONE ACETATE]: the “Bacterial Biotransformation” value in series [1], in series [3], in [4], in series [5], in series [16] and in series [7] was “Compound metabolized” throughout. In addition, the “Bacterial Biotransformation” value was “Compound NOT metabolized” in series [17]; “Compound metabolized” in [18]; “Compound metabolized” in series [9]; “Compound metabolized” in series [10]; “Compound metabolized” in series [19]; “Compound metabolized” in series [14]. In addition, the “Bacterial Biotransformation” value in series [15] was “Compound metabolized”.

Turning to `CSc1ccc2c(c1)C(N1CCN(C)CC1)Cc1ccccc1S2.O=C(O)/C=C\C(=O)O` (stereo not given), the “Bacterial Biotransformation” value in series [1] is reported as “Compound NOT metabolized”; in [3] it was “Compound NOT metabolized”; in [4], “Compound metabolized”; in [5] it was “Compound metabolized”; in [7] it was “Compound metabolized”; in series [17], “Compound NOT metabolized”. Besides, the “Bacterial Biotransformation” value in series [8], in series [9], in [19], in [12], in series [20] and in series [13] was “Compound NOT metabolized” throughout. For the same molecule, the “Bacterial Biotransformation” value is on record as “Compound NOT metabolized” in [14] and “Compound metabolized” in series [15].

For `CCOC(=O)[C@H](CCc1ccccc1)N[C@@H](C)C(=O)N1CCC[C@H]1C(=O)O.O=C(O)/C=C\C(=O)O` [ENALAPRIL MALEATE], the “Bacterial Biotransformation” value in series [1], in series [2], in series [3], in series [4], in series [16] and in series [6] was “Compound NOT metabolized” in each case. Also, the “Bacterial Biotransformation” value in series [17], in [8], in series [18], in series [9], in series [19] and in series [11] was “Compound NOT metabolized” each time. The “Bacterial Biotransformation” value in series [20], in series [13], in [14] and in series [15] was “Compound NOT metabolized” each time.

In the case of `CN1[C@@H]2CC[C@H]1C[C@@H](OC(=O)[C@H](CO)c1ccccc1)C2` [HYOSCYAMINE], the “Bacterial Biotransformation” value in series [1] was “Compound NOT metabolized”; in [2] it was “Compound metabolized”; in series [3] it was “Compound NOT metabolized”; in series [4], “Compound NOT metabolized”; in [5] it was “Compound NOT metabolized”; in series [16] it was “Compound NOT metabolized”. Moreover, the “Bacterial Biotransformation” value in [17] was “Compound NOT metabolized”; in [18], “Compound NOT metabolized”; in [10], “Compound NOT metabolized”; in [12], “Compound NOT metabolized”; in series [20], “Compound metabolized”; in series [15], “Compound NOT metabolized”.

Turning to `Cc1ccc(NC(=O)c2ccc(CN3CCN(C)CC3)cc2)cc1Nc1nccc(-c2cccnc2)n1` [IMATINIB], the “Bacterial Biotransformation” value in [1], in [4], in series [5], in series [16], in [7] and in [10] was “Compound NOT metabolized” each time. The “Bacterial Biotransformation” value in series [12] and in series [15] was “Compound NOT metabolized” in each case.
